For one compound, outcome, relative gene expression and relative protein level results are on record in PubChem BioAssay AID624278 (The Scripps Research Institute Molecular Screening Center, 2012).

Test in all cases: RORC target gene expression suppression, late-stage follow-up, mechanism study for RORC inverse agonist project, cell-based, qPCR, endogenous IL-17 and IL-23R, fluorescence (AID 624278)
(In qPCR the cycle at which signal appears reflects the starting amount.)

Assay [1] concerns the target Interleukin-17A (Mus musculus) (UniProt Q62386). To be noted: EL-4 murine T cells, IL-17/IL-23R qPCR, PMA/ionomycin; IL-17; Protein.
Another assay relates to IL-23R. To be noted: EL-4 murine T cells, IL-17/IL-23R qPCR, PMA/ionomycin, at 5 µM, stronger effect = lower value.
A further assay has as its system IL-17. Particulars: EL-4 murine T cells, IL-17/IL-23R qPCR, PMA/ionomycin, at 5 µM, stronger effect = lower value.

Each structure is given as a SMILES string. The source made the active and inactive calls.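 Rule for the calls: active = target gene mRNA expression lowered over 20% below the solvent-only control in each of three panels; inactive = the rest.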

Chain of Interleukin-17A (Mus musculus) (Q62386 whole entry, looked up): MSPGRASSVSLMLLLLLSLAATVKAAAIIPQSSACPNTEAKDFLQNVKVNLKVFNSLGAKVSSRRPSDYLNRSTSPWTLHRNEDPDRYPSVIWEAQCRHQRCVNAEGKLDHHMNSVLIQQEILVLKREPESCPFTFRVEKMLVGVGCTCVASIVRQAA

For the compound `OC(c1ccc(-c2ccc(CN3CCN(Cc4ccncc4)CC3)cc2)c(F)c1)(C(F)(F)F)C(F)(F)F`, the outcome in assay [1] was active. The relative gene expression was 0.2 with IL-23R and 0.1 in the assay with IL-17 (mRNA). Besides, the relative protein level with IL-17 (IL-17 protein level) turned out to be 0.6.
